ChEMBL document CHEMBL3997789, “N-(2-(arylmethylimino)ethyl)-7-chloroquinolin-4-amine derivatives, synthesized by thermal and ultrasonic means, are endowed with anti-Zika virus activity” (Eur J Med Chem, 2017)

Assays:
Zika virus [1] = experiment: Antiviral activity against Zika virus infected in African green monkey Vero cells assessed as inhibition of viral RNA replication at 10 uM after 24 hrs by RT-PCR method relative to control; assay type: functional
[2] = Cytotoxicity against African green monkey Vero cells after 72 hrs by XTT assay; assay type: cell-based; settings: chlorocebus sabaeus
[3] = Selectivity index, ratio of CC50 for African green monkey Vero cells to EC50 for Zika virus; assay type: toxicity; settings: read-out: Ratio CC50/EC50
Zika virus [4] = experiment: Antiviral activity against Zika virus infected in African green monkey Vero cells assessed as inhibition of viral RNA replication after 24 hrs by RT-PCR method; assay type: functional
Zika virus [5] = experiment: Potency index, ratio of chloroquine EC50 to test compound EC50 for Zika virus; assay type: functional
Vero = experiment: Cytotoxicity against African green monkey Vero cells assessed as reduction in cell viability at 10 uM after 72 hrs by XTT assay relative to control; assay type: cell-based; settings: chlorocebus sabaeus

Fc1ccc(C=NCCNc2ccnc3cc(Cl)ccc23)cc1
inhibition at 10 µM (Zika virus [1]): 75%
CC50 at 72 h [2]: 534 µM
selectivity ratio [3]: 356
EC50 (Zika virus [4]): 1.5 µM
Ratio EC50 (Zika virus [5]): 10

Oc1ccccc1C=NCCNc1ccnc2cc(Cl)ccc12
inhibition at 10 µM (Zika virus [1]): 57%

O=[N+]([O-])c1ccc(C=NCCNc2ccnc3cc(Cl)ccc23)cc1
inhibition at 10 µM (Zika virus [1]): 82%
CC50 at 72 h [2]: 512 µM
selectivity ratio [3]: 341
EC50 (Zika virus [4]): 1.5 µM
Ratio EC50 (Zika virus [5]): 10

Oc1cccc(C=NCCNc2ccnc3cc(Cl)ccc23)c1O
Activity (Vero): > 80%

COc1cccc(C=NCCNc2ccnc3cc(Cl)ccc23)c1O
inhibition at 10 µM (Zika virus [1]): 74%
CC50 at 72 h [2]: 487 µM
selectivity ratio [3]: 304
EC50 (Zika virus [4]): 1.6 µM
Ratio EC50 (Zika virus [5]): 10

NCCNc1ccnc2cc(Cl)ccc12
inhibition at 10 µM (Zika virus [1]): 43%

COc1cc(C=NCCNc2ccnc3cc(Cl)ccc23)cc(OC)c1OC
inhibition at 10 µM (Zika virus [1]): 41%

CCN(CC)CCCC(C)Nc1ccnc2cc(Cl)ccc12 (stereo not drawn) [CHLOROQUINE]
inhibition at 10 µM (Zika virus [1]): 47%

O=[N+]([O-])c1ccc(C=NCCNc2ccnc3cc(Cl)ccc23)o1
inhibition at 10 µM (Zika virus [1]): 72%
CC50 at 72 h [2]: 412 µM
selectivity ratio [3]: 515
EC50 (Zika virus [4]): 0.8 µM
Ratio EC50 (Zika virus [5]): 10

COc1ccc(OC)c(C=NCCNc2ccnc3cc(Cl)ccc23)c1
inhibition at 10 µM (Zika virus [1]): 51%

Clc1ccc2c(NCCN=Cc3ccc(Br)cc3)ccnc2c1
inhibition at 10 µM (Zika virus [1]): 52%

Clc1ccc(C=NCCNc2ccnc3cc(Cl)ccc23)c(Cl)c1
Activity (Vero): > 80%

O=[N+]([O-])c1ccc(C=NCCNc2ccnc3cc(Cl)ccc23)s1
inhibition at 10 µM (Zika virus [1]): 78%
CC50 at 72 h [2]: 478 µM
selectivity ratio [3]: 318
EC50 (Zika virus [4]): 1.5 µM
Ratio EC50 (Zika virus [5]): 10

COc1cccc(OC)c1C=NCCNc1ccnc2cc(Cl)ccc12
inhibition at 10 µM (Zika virus [1]): 75%
CC50 at 72 h [2]: 458 µM
selectivity ratio [3]: 305
EC50 (Zika virus [4]): 1.5 µM
Ratio EC50 (Zika virus [5]): 10

Cc1ccc(C=NCCNc2ccnc3cc(Cl)ccc23)cc1
inhibition at 10 µM (Zika virus [1]): 66%

Clc1ccc2c(NCCN=Cc3cccnc3)ccnc2c1
inhibition at 10 µM (Zika virus [1]): 80%
CC50 at 72 h [2]: 578 µM
selectivity ratio [3]: 170
EC50 (Zika virus [4]): 3.4 µM
Ratio EC50 (Zika virus [5]): 5

Clc1ccc2c(NCCN=Cc3ccccn3)ccnc2c1
inhibition at 10 µM (Zika virus [1]): 70%

Clc1ccc2c(NCCN=Cc3ccccc3)ccnc2c1
inhibition at 10 µM (Zika virus [1]): 76%
CC50 at 72 h [2]: 489 µM
selectivity ratio [3]: 407
EC50 (Zika virus [4]): 1.2 µM
Ratio EC50 (Zika virus [5]): 10

Clc1ccc2c(NCCN=Cc3c(Cl)cccc3Cl)ccnc2c1
Activity (Vero): > 80%

COc1ccccc1C=NCCNc1ccnc2cc(Cl)ccc12
inhibition at 10 µM (Zika virus [1]): 70%

Clc1ccc2c(NCCN=Cc3ccncc3)ccnc2c1
inhibition at 10 µM (Zika virus [1]): 74%
CC50 at 72 h [2]: 571 µM
selectivity ratio [3]: 380
EC50 (Zika virus [4]): 1.5 µM
Ratio EC50 (Zika virus [5]): 10

O=[N+]([O-])c1cccc(C=NCCNc2ccnc3cc(Cl)ccc23)c1
inhibition at 10 µM (Zika virus [1]): 59%
